The text below walks through data of US9603950B1, “Compounds of imaging agent with HDAC inhibitor for treatment of Alzheimer syndrome and method of synthesis thereof” (INSTITUTE OF NUCLEAR ENERGY RESEARCH, priority 2015, dated 2017).

Common to all, as to details: BNL-26 inhibitor labeled with 11C
Data set [1] in a line: Penetration of the brain blood vessel barrier, previous study of 11C-labeled BNL-26. In kind it is in vivo.
The target in another data set is HDAC2 (Homo sapiens, UniProt Q92769). The data set can be described thus: HDAC2 inhibition, previous study of 11C-labeled BNL-26. In kind it is biochemical.
Chain of HDAC2 (Q92769 whole entry, species assumed): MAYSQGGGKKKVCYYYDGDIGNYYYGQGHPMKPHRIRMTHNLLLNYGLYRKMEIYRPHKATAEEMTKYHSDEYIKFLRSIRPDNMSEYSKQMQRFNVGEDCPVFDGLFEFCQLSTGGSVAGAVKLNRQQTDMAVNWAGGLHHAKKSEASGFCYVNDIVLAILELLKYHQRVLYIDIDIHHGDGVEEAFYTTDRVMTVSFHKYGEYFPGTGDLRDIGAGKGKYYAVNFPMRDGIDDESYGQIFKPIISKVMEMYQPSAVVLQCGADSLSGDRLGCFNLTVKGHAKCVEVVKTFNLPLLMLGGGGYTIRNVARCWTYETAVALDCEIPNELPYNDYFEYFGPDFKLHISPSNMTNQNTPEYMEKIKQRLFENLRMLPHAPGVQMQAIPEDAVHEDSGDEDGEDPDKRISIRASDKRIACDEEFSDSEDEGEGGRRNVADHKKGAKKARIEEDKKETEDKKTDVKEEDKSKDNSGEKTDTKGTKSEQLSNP
In the next data set the target is HDAC1 (Homo sapiens, UniProt Q13547). The data set can be described thus: HDAC1 inhibition, previous study of 11C-labeled BNL-26. In kind it is biochemical.
Chain of HDAC1 (Q13547 whole entry, species assumed): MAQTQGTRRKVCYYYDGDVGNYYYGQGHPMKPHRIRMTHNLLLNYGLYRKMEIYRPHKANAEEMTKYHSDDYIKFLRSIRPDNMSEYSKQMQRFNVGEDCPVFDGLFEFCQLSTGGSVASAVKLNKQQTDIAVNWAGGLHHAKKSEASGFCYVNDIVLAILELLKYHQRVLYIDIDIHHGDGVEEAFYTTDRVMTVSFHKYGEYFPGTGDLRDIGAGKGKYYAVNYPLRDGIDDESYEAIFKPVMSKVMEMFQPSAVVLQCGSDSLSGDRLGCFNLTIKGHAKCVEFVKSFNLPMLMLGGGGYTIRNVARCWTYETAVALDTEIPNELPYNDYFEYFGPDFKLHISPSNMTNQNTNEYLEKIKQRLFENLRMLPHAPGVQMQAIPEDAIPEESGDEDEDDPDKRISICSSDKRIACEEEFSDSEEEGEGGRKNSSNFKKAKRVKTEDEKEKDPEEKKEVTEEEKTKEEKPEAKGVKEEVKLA

As for `CN(C)Cc1ccc(C(=O)Nc2cc(-c3ccccc3)ccc2N)cc1` [BNL-26, N-(4-amino-[1,1′-biphenyl]-3-yl)-4-((dimethylamino)methyl)benzamide], the “ability to penetrate the brain blood vessel barrier” value in data set [1] is recorded as “very good”. At HDAC2, the “inhibitory effect of HDAC2” value is “good inhibitory effect”. Also, the “inhibitory effect of HDAC1” value against HDAC1 is recorded as “good inhibitory effect”.
